Values joined by “and” are separate entries in the source; they are usually repeats but may differ in a detail not shown here. Equal values may be shown once. Inconclusive results and toxic doses are left out. Rule as the data show it: active = T/C of 150% or more; inactive = T/C below 125%.
Test system: L1210 leukemia ip in BDF1 mice, survival T/C
Assay: NCI In Vivo Anticancer Drug Screen. Data for tumor model L1210 Leukemia (intraperitoneal) in B6D2F1 (BDF1) mice
Conditions: endpoint: mean survival time, higher = longer survival
How it was run: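 Transplanted-tumor mice were given test agent; controls received vehicle only. Survival readings from the two groups were divided (treated over control).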

[1] = dose: 100.0 mg/kg/injection, schedule: Q01DX009 (ip), vehicle: Klucel (hydroxypropylcellulose) (HPC)
[2] = dose: 100.0 mg/kg/injection, schedule: Q04DX003 (ip), vehicle: Klucel (hydroxypropylcellulose) (HPC)
[3] = dose: 200.0 mg/kg/injection, schedule: Q04DX003 (ip), vehicle: Klucel (hydroxypropylcellulose) (HPC)
[4] = dose: 100.0 mg/kg/injection, schedule: Q04DX002 (ip), vehicle: saline with Tween-80
[5] = dose: 200.0 mg/kg/injection, schedule: Q04DX002 (ip), vehicle: saline with Tween-80
[6] = dose: 400.0 mg/kg/injection, schedule: Q04DX002 (ip), vehicle: saline with Tween-80
[7] = dose: 400.0 mg/kg/injection, schedule: Q04DX003 (ip), vehicle: Klucel (hydroxypropylcellulose) (HPC)
[8] = dose: 100.0 mg/kg/injection, schedule: Q01DX009 (ip), vehicle: saline with Tween-80
[9] = dose: 200.0 mg/kg/injection, schedule: Q01DX009 (ip), vehicle: saline with Tween-80
[10] = dose: 50.0 mg/kg/injection, schedule: Q01DX001 (ip), vehicle: saline
[11] = dose: 100.0 mg/kg/injection, schedule: Q01DX001 (ip), vehicle: saline
[12] = dose: 200.0 mg/kg/injection, schedule: Q01DX001 (ip), vehicle: saline
[13] = dose: 400.0 mg/kg/injection, schedule: Q01DX001 (ip), vehicle: saline
[14] = dose: 100.0 mg/kg/injection, schedule: Q04DX003 (ip), vehicle: saline with Tween-80
[15] = dose: 200.0 mg/kg/injection, schedule: Q04DX003 (ip), vehicle: saline with Tween-80
[16] = dose: 100.0 mg/kg/injection, schedule: Q01DX001 (ip), vehicle: carboxymethylcellulose (CMC)
[17] = dose: 200.0 mg/kg/injection, schedule: Q01DX001 (ip), vehicle: carboxymethylcellulose (CMC)
[18] = dose: 400.0 mg/kg/injection, schedule: Q01DX001 (ip), vehicle: carboxymethylcellulose (CMC)
[19] = dose: 100.0 mg/kg/injection, schedule: Q04DX002 (ip), vehicle: Klucel (hydroxypropylcellulose) (HPC)
[20] = dose: 200.0 mg/kg/injection, schedule: Q04DX002 (ip), vehicle: Klucel (hydroxypropylcellulose) (HPC)

Measured: T/C

CC(=O)Oc1c2c(c(CC=C(C)C)c3c1C(=O)C1=CC4CC5C(C)(C)OC(C/C=C(/C)C(=O)O)(C4=O)C15O3)OC(C)(CCC=C(C)C)C=C2 (stereo unspecified)
inactive: dose: 50.0 mg/kg/injection, schedule: Q01DX009 (ip), vehicle: Klucel (hydroxypropylcellulose) (HPC) 109 % of control | dose: 50.0 mg/kg/injection, schedule: Q04DX003 (ip), vehicle: Klucel (hydroxypropylcellulose) (HPC) 103 % of control | dose: 100.0 mg/kg/injection, schedule: Q01DX001 (ip), vehicle: Klucel (hydroxypropylcellulose) (HPC) 106 % of control | [1] 91 % of control | [2] 97 % of control | dose: 200.0 mg/kg/injection, schedule: Q01DX001 (ip), vehicle: Klucel (hydroxypropylcellulose) (HPC) 114 % of control | [3] 105 % of control | dose: 400.0 mg/kg/injection, schedule: Q01DX001 (ip), vehicle: Klucel (hydroxypropylcellulose) (HPC) 110 % of control

Nc1ncnc2c1CP(=O)(c1ccccc1)CC2 (stereo unspecified)
inactive: [4] 103 % of control | [5] 103 % of control | [6] 103 % of control

C/C=C1/C[N+]2(C)CCC34C(=C(C(=O)OC)C1CC32)Nc1ccc(O)cc14 (stereo unspecified)
inactive: dose: 6.25 mg/kg/injection, schedule: Q01DX001 (ip), vehicle: saline with Tween-80 97 % of control | dose: 12.5 mg/kg/injection, schedule: Q01DX001 (ip), vehicle: saline with Tween-80 102 % of control | dose: 25.0 mg/kg/injection, schedule: Q01DX001 (ip), vehicle: saline with Tween-80 96 % of control

NC(=O)CSc1nnc(SCC(N)=O)s1
inactive: [2] 106 % of control | [3] 101 % of control | [7] 90 % of control

CC(=O)OC1CCC(C(C)(C)C)CC1 (stereo unspecified)
inactive: [8] 98 % of control | [9] 95 % of control

O=C1CC(=Nc2ccc([N+](=O)[O-])cc2)NN1c1c(Cl)cc(Cl)cc1Cl
inactive: [8] 97 % of control | [9] 101 % of control | dose: 400.0 mg/kg/injection, schedule: Q01DX009 (ip), vehicle: saline with Tween-80 90 % of control

CN(C)C(=S)NCc1ccccc1
inactive: [8] 95 % of control | [9] 101 % of control

Cc1cc(CC(=S)[S-])[n+](C)c(CC(=S)S)c1
inactive: dose: 87.5 mg/kg/injection, schedule: Q01DX009 (ip), vehicle: Klucel (hydroxypropylcellulose) (HPC) 105 % of control | dose: 175.0 mg/kg/injection, schedule: Q01DX009 (ip), vehicle: Klucel (hydroxypropylcellulose) (HPC) 101 % of control

CC(C)(CN)CCBr
inactive: [10] 95 % of control | [11] 88 % of control | [12] 101 % of control | [13] 92 % of control

CN/N=C/c1ccc([N+](=O)[O-])o1
inactive: [14] 97 % of control | [15] 88 % of control

NC(=O)/C=C/NC(=O)/C=N\O
inactive: dose: 12.5 mg/kg/injection, schedule: Q01DX Z (ip), vehicle: saline 97 % of control and 89 % of control | dose: 25.0 mg/kg/injection, schedule: Q01DX Z (ip), vehicle: saline 92 % of control and 93 % of control | dose: 50.0 mg/kg/injection, schedule: Q01DX Z (ip), vehicle: saline 96 % of control and 97 % of control | [16] 102 % of control | dose: 100.0 mg/kg/injection, schedule: Q01DX Z (ip), vehicle: saline 96 % of control and 100 % of control | [17] 96 % of control | dose: 200.0 mg/kg/injection, schedule: Q01DX Z (ip), vehicle: saline 97 % of control and 89 % of control | [18] 91 % of control

O=C(O)C1=C(C(=O)Nc2cccc3cccnc23)C2C=CC1O2 (stereo unspecified)
inactive: [11] 96 % of control | [12] 97 % of control | [13] 95 % of control

CCOC(=O)C1C(=O)C=C(C)C(C(=O)OCC)C1c1ccc(N(C)C)cc1 (stereo unspecified)
inactive: dose: 25.6 mg/kg/injection, schedule: Q04DX002 (ip), vehicle: saline with Tween-80 92 % of control | dose: 64.0 mg/kg/injection, schedule: Q04DX002 (ip), vehicle: saline with Tween-80 96 % of control | dose: 160.0 mg/kg/injection, schedule: Q04DX002 (ip), vehicle: saline with Tween-80 92 % of control | [6] 103 % of control

S=C=NCc1ccc(Cl)cc1
inactive: dose: 6.25 mg/kg/injection, schedule: Q01DX009 (ip), vehicle: Klucel (hydroxypropylcellulose) (HPC) 103 % of control | dose: 12.5 mg/kg/injection, schedule: Q01DX009 (ip), vehicle: Klucel (hydroxypropylcellulose) (HPC) 92 % of control | dose: 25.0 mg/kg/injection, schedule: Q01DX009 (ip), vehicle: Klucel (hydroxypropylcellulose) (HPC) 95 % of control

Cc1ccc(NCc2ccc(N(C)C)cc2)cc1
inactive: [2] 99 % of control | [3] 91 % of control | [7] 93 % of control

Nc1ccccc1NC(=O)C(F)(F)F
inactive: dose: 50.0 mg/kg/injection, schedule: Q01DX001 (ip), vehicle: carboxymethylcellulose (CMC) 93 % of control | [16] 97 % of control | [17] 98 % of control | [18] 108 % of control

COc1ccc(OC)c(CC(C)=O)c1
inactive: [16] 93 % of control | [17] 101 % of control | [18] 95 % of control

O=C1c2ccccc2-c2ccc(N=C(NO)C(F)(F)F)cc21
inactive: [16] 118 % of control | [17] 98 % of control | [18] 98 % of control

Nc1cccc(CCCCc2ccc(S(=O)(=O)F)cc2)c1
inactive: [11] 101 % of control | [12] 95 % of control | [13] 98 % of control

Oc1ccc(Cl)cc1/C=N/Nc1c2ccccc2nc2ccccc12
inactive: [11] 89 % of control | [12] 103 % of control | [13] 105 % of control

N#CSc1c[nH]c2ccccc12
inactive: dose: 50.0 mg/kg/injection, schedule: Q01DX009 (ip), vehicle: saline with Tween-80 96 % of control | [8] 101 % of control | [14] 104 % of control | [15] 95 % of control

CCOC(=O)CCSCCC(=O)OCC
inactive: dose: 100.0 mg/kg/injection, schedule: Q01DX001 (ip), vehicle: saline with Tween-80 109 % of control | dose: 200.0 mg/kg/injection, schedule: Q01DX001 (ip), vehicle: saline with Tween-80 101 % of control | dose: 400.0 mg/kg/injection, schedule: Q01DX001 (ip), vehicle: saline with Tween-80 101 % of control

COc1ccc(-n2c(=O)c(N=Nc3ccccc3)c(O)n(-c3ccc(I)cc3)c2=S)cc1
inactive: [14] 97 % of control | [15] 100 % of control | dose: 400.0 mg/kg/injection, schedule: Q04DX003 (ip), vehicle: saline with Tween-80 116 % of control

CC(C)(C)[C]1=Nc2cccc[c]2[Ge]1([CH3])[CH3]
inactive: [4] 108 % of control | [5] 93 % of control | [6] 97 % of control

Cc1ccc2ccccc2c1
inactive: [19] 91 % of control | [20] 95 % of control

CCC1(C)C(=O)c2ccccc2N(C)C1=O (stereo unspecified)
inactive: [4] 104 % of control | [5] 104 % of control

CN(C)c1nc(N)c(C#N)c(C#N)c1C#N
inactive: [10] 96 % of control | [11] 96 % of control | [12] 100 % of control

CN1C2CCC1CN(Cc1ccccc1)C2
inactive: dose: 12.5 mg/kg/injection, schedule: Q01DX009 (ip), vehicle: saline 103 % of control | dose: 12.5 mg/kg/injection, schedule: Q04DX003 (ip), vehicle: saline 97 % of control | dose: 25.0 mg/kg/injection, schedule: Q01DX009 (ip), vehicle: saline 101 % of control | dose: 25.0 mg/kg/injection, schedule: Q04DX003 (ip), vehicle: saline 101 % of control | dose: 50.0 mg/kg/injection, schedule: Q01DX009 (ip), vehicle: saline 101 % of control | dose: 50.0 mg/kg/injection, schedule: Q04DX003 (ip), vehicle: saline 98 % of control

CNC(=O)Oc1cc(OC)ccc1C(=O)c1ccccc1
inactive: [1] 94 % of control | dose: 200.0 mg/kg/injection, schedule: Q01DX009 (ip), vehicle: Klucel (hydroxypropylcellulose) (HPC) 96 % of control | dose: 400.0 mg/kg/injection, schedule: Q01DX009 (ip), vehicle: Klucel (hydroxypropylcellulose) (HPC) 97 % of control

Cn1c(Cl)c(C(=O)O)c2ccccc21
inactive: dose: 50.0 mg/kg/injection, schedule: Q04DX002 (ip), vehicle: Klucel (hydroxypropylcellulose) (HPC) 97 % of control | [19] 97 % of control | [20] 101 % of control
